Experimental findings from US20190374536A1, “METHODS OF USING FASN INHIBITORS” (FORMA Therapeutics, Inc., priority 2016, published 2019) are described below.

The structures appear in SMILES notation. Marks after values point to notes of the source that are not given here.

For one assay, the system named is HFD rat model. In words: High fat diet (HFD) fed rat model: steatosis, plasma/liver TG, plasma leptin. The settings on record: HFD rats, 5 mg/kg QD. Format: in vivo. From the text: Steatosis is caused by the accumulation of triglycerides (TG) in the liver, and as such, decreases in TG may represent a potential marker for activity on steatosis. The obese phenotype of HFD model is dependent on the incorporation of high dietary fat and DNL-derived fat. […] The key endpoints of this study were to evaluate the relationship between dose schedule and exposure with changes in liver steatosis score and liver TG. For these studies, male SD rats (6-8 week old) were fed a high fat diet (D124942, Research Diets Inc.) for four weeks to develop the obese phenotype and then sorted into treatment groups (N=8) based on mean body weight. […] Rosiglitazone 5 mg/kg QD was included as a positive control. Plasma and serum samples were collected weekly throughout the study. After 28 days of treatment, animals were sacrificed and liver and plasma samples were collected. Livers were fixed in formalin, processed for H&E staining, and evaluated by a pathologist specializing in NASH.
Two HFD studies were conducted. […] The second HFD study investigated the endpoints of steatosis and liver and plasma markers of lipogenesis (including TG and FFA).

Another assay has as its system HSD rat model. The assay is described as follows: High-sucrose diet (HSD) fed rat model: plasma/liver TG, plasma leptin. The settings on record: HSD rats, 5 mg/kg QD. Format: in vivo. The source says:
A HSD represents an alternative experimental model for obesity and steatosis. In this model, 60-70% of the caloric intake is from simple carbohydrates, and thus, the primary source of increased TG is through DNL.
Male SD rats (6-8 week old) were fed a HSD (D10001, Research Diets Inc.) for six weeks to develop the obese phenotype and then sorted into treatment groups (N=8 each) based on mean body weight.

Assay [1] concerns TH17 cells differentiated in-vitro. The assay is described as follows: TH17 differentiation assay: inhibition of IL-17 secretion. Format: cell-based. More on the design: activity: dose or concentration left out as unconfirmed. The settings on record: Homo sapiens; for inhibition at 1 µM: IL-17 secretion; for activity: TH17 cells differentiated in-vitro, read-out: IL17 secretion (% of DMSO). The source says: CD4+ T cells were isolated using CD4+ T cell isolation kit (Miltenyi Biotech), activated with CD3/CD28 microbeads and cultured for 7-10 days in the presence of IL-1β, IL-6, IL-21, I-23 and TGFβ and test compounds. Cells cultured with DMSO or without cytokines and/or microbeads were used as negative controls.
Read out: (1) At day 7-10, the supernatants were collected and tested for soluble 1-17. (2) Cells were also harvested and stained for intra-cellular IL-17A. (3) Cells were also stained separately by Annexin/PI for cell viability. (4) Pictures of cultures were taken for each condition.

As for `CN(CCOc1ccc(CC2SC(=O)NC2=O)cc1)c1ccccn1` (stereo not shown) [Rosiglitazone], in the assay with HFD rat model (Day 14), the “Plasma TG % Decrease of treatment group (mean) vs. vehicle treated HFD group (mean)” value came to 52.5% and the “Plasma TG Raw Data (Mean ± SEM)” value amounted to 0.48 ± 0.02 mmol/L. Also, in the assay with HFD rat model (Day 26), the “Plasma TG % Decrease of treatment group (mean) vs. vehicle treated HFD group (mean)” value was found to be 60.0% and the “Plasma TG Raw Data (Mean ± SEM)” value is listed as 0.46 ± 0.05 mmol/L. Further, in the assay on HFD rat model (Day 28), the “Liver TG % Decrease of treatment group (mean) vs. vehicle treated HFD group (mean)” value turned out to be 70.0%, the “Liver TG Raw Data (Mean ± SEM)” value is 17.2 ± 0.8 µmol/g and the “Plasma Leptin (Mean ± SEM)” value stood at 16.0 ± 1.2 ng/mL. Besides, in the assay on HSD rat model (Day 14), the “Plasma TG % Decrease of treatment group (mean) vs. vehicle treated HSD group (mean)” value is 60.6% and the “Plasma TG Raw Data (Mean ± SEM)” value worked out at 1.07 ± 0.10 mmol/L. In addition, in the assay on HSD rat model (Day 26), the “Plasma TG % Decrease of treatment group (mean) vs. vehicle treated HSD group (mean)” value was determined as 62.3% and the “Plasma TG Raw Data (Mean ± SEM)” value is reported as 1.24 ± 0.17 mmol/L. Also, in the assay on HSD rat model (Day 28), the “Liver TG % Decrease of treatment group (mean) vs. vehicle treated HSD group (mean)” value is given as 41.2 * %, the “Liver TG Raw Data (Mean ± SEM)” value turned out to be 8.5 ± 1.5 µmol/g and the “Plasma Leptin (Mean ± SEM)” value was 12.6 ± 2.5 ng/mL.

The inhibition is the percentage by which the read-out fell short of the control. In the case of `O=C(c1ccc(-c2nc3ccc(F)cc3o2)cc1)N1CCN(C(=O)C2(O)CC2)CC1` [compound 1], in assay [1], the inhibition at 1 µM stood at 46% and the activity worked out at 54%.

Consider `O=C(c1ccc(-c2nc3ccc(Cl)cc3o2)cc1)N1CCN(C(=O)C2(O)CC2)CC1` [compound 2], for which, in assay [1], the inhibition at 1 µM turned out to be 79% and the activity stood at 21%.

For the molecule `O=C(c1ccc(-c2cc(Cl)ccc2F)cc1)N1CCN(C(=O)C2(O)CC2)CC1` [compound 3], in assay [1], at 1 µM the inhibition was 75% and the activity is 25%.

Turning to `Cn1cnc2cc(-c3ccc(C(=O)N4CCN(C(=O)C5(O)CC5)CC4)c(F)c3)ccc21` [compound 4], in assay [1], the inhibition at 1 µM amounted to 85% and the activity came to 15%.

`Cn1ncc2ccc(-c3ccc(C(=O)N4CCN(C(=O)C5(N)CC5)CC4)cc3)cc21` [compound 5]: in assay [1], at 1 µM the inhibition was 74% and the activity amounted to 26%.

For `O=C(c1ccc(-c2nc3ccc(F)cc3o2)cc1F)N1CCN(C(=O)C2(O)CC2)CC1` [compound 6], in assay [1], testing at 1 µM gave an inhibition of 53% and the activity was found to be 47%.

Take `C[C@@H]1CN(C(=O)c2ccc(-c3nc4ccc(F)cc4o3)cc2)CCN1C(=O)C1(O)CC1` [compound 7]: in assay [1], the inhibition at 1 µM is 66% and the activity came out at 34%.

Regarding `C[C@H]1CN(C(=O)c2ccc(-c3ccc4c(c3)ncn4C)cc2F)CCN1C(=O)C1(O)CC1` [compound 8], in assay [1], the inhibition at 1 µM stood at 77% and the activity stood at 23%.

As for `Cn1cnc2cc(-c3ccc(C(=O)N4CCN(C(=O)C5(O)CC5)CC4)cc3)ccc21` [compound 9], in assay [1], the inhibition at 1 µM was 76% and the activity is 24%.

With `C[C@H]1CN(C(=O)c2ccc(-c3nc4ccc(Cl)cc4o3)cc2)CCN1C(=O)C1(O)CC1` [compound 11], in assay [1], the inhibition at 1 µM was 67% and the activity came out at 33%.
